According to US12258327B2, “5-membered heteroaryl-containing aminopyridine compounds as EGFR inhibitors” (YUHAN CORPORATION, priority 2021, dated 2025):
Where two headings read alike, the source gives them in different places.

How the values were obtained:
EGFR L858R/T790M/C797S = EGFR L858R/T790M/C797S (Homo sapiens, UniProt P00533, C797S/L858R/T790M); assay: Biochemical EGFR kinase assay (Lance Ultra TR-FRET), triple mutant L858R/T790M/C797S
How it was run: (§1)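 Kinase activity is measured by TR-FRET phosphopeptide detection. Compounds span 0.003 μM to 10 μM; the 1 h reaction at room temperature is quenched with EDTA, then labelled antibody (2 nM) is incubated 60 min before reading.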

EGFR del19/T790M/C797S = EGFR del19/T790M/C797S (Homo sapiens, UniProt P00533, C797S/DEL746-750/T790M); assay: Biochemical EGFR kinase assay (Lance Ultra TR-FRET), triple mutant del19/T790M/C797S
How it was run: as §1

EGFR L858R/C797S = EGFR L858R/C797S (Homo sapiens, UniProt P00533, C797S/L858R); assay: Biochemical EGFR kinase assay (Lance Ultra TR-FRET), double mutant L858R/C797S
How it was run: as §1

EGFR wildtype (WT) = EGFR wildtype (WT) (Homo sapiens, UniProt P00533); assay: Biochemical EGFR kinase assay (Lance Ultra TR-FRET), wildtype
How it was run: as §1

EGFR del19/C797S = EGFR del19/C797S (Homo sapiens, UniProt P00533, C797S/DEL746-750); assay: Biochemical EGFR kinase assay (Lance Ultra TR-FRET), double mutant del19/C797S
How it was run: as §1

[1] = IC50 L858R/T790M/C797S (nM) 100 μM ATP, 100 μM ATP
[2] = Km ATP, read-out: IC50 L858R/T790M/C797S (nM) Km ATP
[3] = IC50 del19/T790M/C797S (nM) 100 μM ATP, 100 μM ATP
[4] = Km ATP, read-out: IC50 del19/T790M/C797S (nM) Km ATP
[5] = IC50 L858R/C797S (nM) 100 μM ATP, 100 μM ATP
[6] = Km ATP, read-out: IC50 L858R/C797S (nM) Km ATP
[7] = IC50 WT (nM) 100 μM ATP, 100 μM ATP
[8] = Km ATP, read-out: IC50 WT (nM) Km ATP
[9] = IC50 del19/C797S (nM) 100 μM ATP, 100 μM ATP
[10] = Km ATP, read-out: IC50 del19/C797S (nM) Km ATP

Chain of EGFR del19/C797S (P00533 with tags, fused parts or gaps DEL746-750/C797S): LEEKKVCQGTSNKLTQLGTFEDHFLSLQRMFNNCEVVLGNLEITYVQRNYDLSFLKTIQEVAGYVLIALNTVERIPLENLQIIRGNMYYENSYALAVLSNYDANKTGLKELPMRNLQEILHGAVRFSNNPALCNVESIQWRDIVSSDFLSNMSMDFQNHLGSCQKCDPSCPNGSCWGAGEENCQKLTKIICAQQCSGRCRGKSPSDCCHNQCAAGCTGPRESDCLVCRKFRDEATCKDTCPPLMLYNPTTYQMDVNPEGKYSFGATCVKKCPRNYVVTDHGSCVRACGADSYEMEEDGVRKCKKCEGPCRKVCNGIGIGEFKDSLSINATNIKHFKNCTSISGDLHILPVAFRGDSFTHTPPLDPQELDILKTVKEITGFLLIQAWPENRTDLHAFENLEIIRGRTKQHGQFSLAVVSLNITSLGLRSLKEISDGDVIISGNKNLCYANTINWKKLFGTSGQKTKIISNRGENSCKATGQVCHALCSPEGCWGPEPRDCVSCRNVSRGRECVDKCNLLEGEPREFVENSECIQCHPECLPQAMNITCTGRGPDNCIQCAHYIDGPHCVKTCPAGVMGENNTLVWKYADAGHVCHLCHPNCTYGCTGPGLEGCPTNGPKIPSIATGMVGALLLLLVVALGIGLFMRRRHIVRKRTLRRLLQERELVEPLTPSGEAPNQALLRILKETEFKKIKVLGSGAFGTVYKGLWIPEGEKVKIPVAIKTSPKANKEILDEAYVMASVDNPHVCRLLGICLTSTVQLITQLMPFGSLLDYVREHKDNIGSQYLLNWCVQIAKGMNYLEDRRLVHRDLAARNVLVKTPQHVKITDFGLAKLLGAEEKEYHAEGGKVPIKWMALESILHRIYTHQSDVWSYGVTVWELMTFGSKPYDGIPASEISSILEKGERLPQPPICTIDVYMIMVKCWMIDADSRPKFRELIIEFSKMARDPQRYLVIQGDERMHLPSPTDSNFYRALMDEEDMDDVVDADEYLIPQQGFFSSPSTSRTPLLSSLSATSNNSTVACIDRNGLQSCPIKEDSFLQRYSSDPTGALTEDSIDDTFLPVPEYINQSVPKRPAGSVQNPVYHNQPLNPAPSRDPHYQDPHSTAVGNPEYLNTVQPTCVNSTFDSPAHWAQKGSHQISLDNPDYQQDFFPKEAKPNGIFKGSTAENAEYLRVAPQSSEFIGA
Chain of EGFR L858R/C797S (P00533 25-1210 C797S/L858R): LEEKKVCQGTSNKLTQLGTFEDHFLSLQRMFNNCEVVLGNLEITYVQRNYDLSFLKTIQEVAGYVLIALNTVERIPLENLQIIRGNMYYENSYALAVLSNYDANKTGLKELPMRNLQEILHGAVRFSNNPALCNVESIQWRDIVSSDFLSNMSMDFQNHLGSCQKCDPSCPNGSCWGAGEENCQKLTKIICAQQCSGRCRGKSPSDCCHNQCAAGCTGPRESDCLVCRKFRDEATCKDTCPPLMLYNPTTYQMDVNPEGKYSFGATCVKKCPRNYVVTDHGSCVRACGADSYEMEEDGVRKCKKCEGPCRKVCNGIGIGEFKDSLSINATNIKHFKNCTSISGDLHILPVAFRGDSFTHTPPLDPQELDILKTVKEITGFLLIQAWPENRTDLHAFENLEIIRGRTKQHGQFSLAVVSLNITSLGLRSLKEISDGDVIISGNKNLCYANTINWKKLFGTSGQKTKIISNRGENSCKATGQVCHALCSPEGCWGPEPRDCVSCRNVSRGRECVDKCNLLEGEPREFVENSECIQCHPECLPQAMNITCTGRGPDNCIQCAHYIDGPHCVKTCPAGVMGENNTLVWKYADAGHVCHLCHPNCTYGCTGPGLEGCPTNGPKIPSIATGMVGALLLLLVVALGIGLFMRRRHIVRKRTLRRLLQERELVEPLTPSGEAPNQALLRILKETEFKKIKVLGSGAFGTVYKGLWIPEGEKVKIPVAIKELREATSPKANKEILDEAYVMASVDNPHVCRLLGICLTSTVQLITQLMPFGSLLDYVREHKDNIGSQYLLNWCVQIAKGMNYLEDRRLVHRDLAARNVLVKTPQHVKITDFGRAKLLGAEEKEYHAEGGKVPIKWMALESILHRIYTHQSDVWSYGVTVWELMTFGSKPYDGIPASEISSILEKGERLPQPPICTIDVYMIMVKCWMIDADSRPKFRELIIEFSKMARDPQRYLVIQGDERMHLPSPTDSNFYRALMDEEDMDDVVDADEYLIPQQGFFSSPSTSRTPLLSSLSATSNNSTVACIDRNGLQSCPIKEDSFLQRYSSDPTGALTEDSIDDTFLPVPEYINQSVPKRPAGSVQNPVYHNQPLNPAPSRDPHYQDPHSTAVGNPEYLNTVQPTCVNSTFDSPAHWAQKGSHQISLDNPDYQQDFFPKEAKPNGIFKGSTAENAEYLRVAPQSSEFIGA
Chain of EGFR wildtype (WT) (P00533 25-1210): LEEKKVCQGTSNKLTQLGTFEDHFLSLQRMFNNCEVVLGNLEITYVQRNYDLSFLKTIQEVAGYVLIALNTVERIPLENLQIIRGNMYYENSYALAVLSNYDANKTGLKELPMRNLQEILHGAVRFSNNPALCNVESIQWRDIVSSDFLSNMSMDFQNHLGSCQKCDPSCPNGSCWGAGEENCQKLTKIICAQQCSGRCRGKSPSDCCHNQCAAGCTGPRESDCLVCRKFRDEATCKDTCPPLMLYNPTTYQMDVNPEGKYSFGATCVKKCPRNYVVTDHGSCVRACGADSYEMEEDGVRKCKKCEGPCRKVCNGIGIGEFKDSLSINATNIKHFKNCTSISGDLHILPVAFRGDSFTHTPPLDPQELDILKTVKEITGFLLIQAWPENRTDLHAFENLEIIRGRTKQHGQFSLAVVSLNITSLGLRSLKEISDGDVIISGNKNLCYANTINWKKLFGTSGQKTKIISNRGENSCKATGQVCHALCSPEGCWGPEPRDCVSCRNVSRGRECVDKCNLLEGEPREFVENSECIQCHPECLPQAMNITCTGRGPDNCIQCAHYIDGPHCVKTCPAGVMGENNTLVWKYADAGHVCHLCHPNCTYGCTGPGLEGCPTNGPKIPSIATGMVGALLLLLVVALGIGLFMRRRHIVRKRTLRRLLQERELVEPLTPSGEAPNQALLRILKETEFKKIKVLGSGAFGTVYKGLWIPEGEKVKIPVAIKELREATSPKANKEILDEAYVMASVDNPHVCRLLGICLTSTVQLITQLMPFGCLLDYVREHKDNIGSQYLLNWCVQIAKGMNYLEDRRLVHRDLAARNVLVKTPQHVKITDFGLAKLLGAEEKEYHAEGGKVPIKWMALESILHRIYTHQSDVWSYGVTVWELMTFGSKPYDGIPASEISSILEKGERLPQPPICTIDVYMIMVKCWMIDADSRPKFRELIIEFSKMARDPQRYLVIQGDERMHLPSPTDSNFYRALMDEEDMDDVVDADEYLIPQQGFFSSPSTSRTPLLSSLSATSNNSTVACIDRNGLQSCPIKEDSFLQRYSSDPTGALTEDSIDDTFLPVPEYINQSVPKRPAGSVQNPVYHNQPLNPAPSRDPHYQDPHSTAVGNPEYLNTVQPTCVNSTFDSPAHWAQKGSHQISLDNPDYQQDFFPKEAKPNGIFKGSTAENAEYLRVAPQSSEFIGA
Chain of EGFR del19/T790M/C797S (P00533 with tags, fused parts or gaps DEL746-750/T790M/C797S): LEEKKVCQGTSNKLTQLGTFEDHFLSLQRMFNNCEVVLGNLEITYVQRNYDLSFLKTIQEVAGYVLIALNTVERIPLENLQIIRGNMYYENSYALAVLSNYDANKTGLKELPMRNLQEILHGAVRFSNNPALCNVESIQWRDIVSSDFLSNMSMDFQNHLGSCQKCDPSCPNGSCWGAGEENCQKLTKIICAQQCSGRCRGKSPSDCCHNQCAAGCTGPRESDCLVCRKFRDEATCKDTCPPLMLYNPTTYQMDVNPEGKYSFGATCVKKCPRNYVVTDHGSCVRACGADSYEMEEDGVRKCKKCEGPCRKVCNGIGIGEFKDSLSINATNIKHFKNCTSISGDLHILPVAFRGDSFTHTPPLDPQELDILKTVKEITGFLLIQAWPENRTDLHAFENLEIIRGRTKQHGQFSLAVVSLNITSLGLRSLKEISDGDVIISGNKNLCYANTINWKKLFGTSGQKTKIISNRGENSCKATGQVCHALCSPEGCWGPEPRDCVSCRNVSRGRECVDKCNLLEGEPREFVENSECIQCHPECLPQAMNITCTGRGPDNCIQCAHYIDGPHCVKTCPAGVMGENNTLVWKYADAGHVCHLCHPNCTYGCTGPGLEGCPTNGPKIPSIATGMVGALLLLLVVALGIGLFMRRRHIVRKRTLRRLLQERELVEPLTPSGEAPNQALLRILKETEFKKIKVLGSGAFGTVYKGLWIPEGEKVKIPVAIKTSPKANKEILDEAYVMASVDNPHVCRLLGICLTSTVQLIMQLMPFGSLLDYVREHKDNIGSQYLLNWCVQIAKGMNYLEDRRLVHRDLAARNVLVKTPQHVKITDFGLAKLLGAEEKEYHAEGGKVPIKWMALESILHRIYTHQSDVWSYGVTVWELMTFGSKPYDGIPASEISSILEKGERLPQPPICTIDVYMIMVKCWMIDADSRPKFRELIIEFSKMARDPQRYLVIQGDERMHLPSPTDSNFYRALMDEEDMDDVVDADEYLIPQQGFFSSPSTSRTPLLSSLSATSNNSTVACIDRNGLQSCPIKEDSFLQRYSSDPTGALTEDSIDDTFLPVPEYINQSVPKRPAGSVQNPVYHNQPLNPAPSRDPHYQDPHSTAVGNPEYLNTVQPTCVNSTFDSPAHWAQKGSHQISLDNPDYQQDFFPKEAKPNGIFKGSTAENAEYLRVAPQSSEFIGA

IC50 (EGFR L858R/T790M/C797S; [1]) [nM]	IC50 (EGFR L858R/T790M/C797S; [2]) [nM]	IC50 (EGFR del19/T790M/C797S; [3]) [nM]	IC50 (EGFR del19/T790M/C797S; [4]) [nM]	IC50 (EGFR L858R/C797S; [5]) [nM]	IC50 (EGFR L858R/C797S; [6]) [nM]	IC50 (EGFR wildtype (WT); [7]) [nM]	IC50 (EGFR wildtype (WT); [8]) [nM]	IC50 (EGFR del19/C797S; [9]) [nM]	IC50 (EGFR del19/C797S; [10]) [nM]	SMILES
0.9	0.2	1.2	0.5	269	35.9	> 10000	1780	65.7	24.3	C[C@]1(O)CC[C@@H](Nc2cc(Nc3ccnc(-c4cnn(CC(F)(F)F)c4)n3)ncc2-c2ccn(C(F)F)n2)CC1 [Example 137, (1s,4s)-4-((5-(1-(Difluoromethyl)-1H-pyrazol-3-yl)-2-((2-(1-(2,2,2-trifluoroethyl)-1H-pyrazol-4-yl)pyrimidin-4-yl)amino)pyridin-4-yl)amino)-1-methylcyclohexan-1-ol]
0.8	0.1	0.4	0.2	295	26.9	> 10000	77.7	47.6	45.1	COCCn1cc(-c2nccc(Nc3cc(N[C@H]4CC[C@@](C)(O)CC4)c(-c4ccn(C(F)F)n4)cn3)n2)cn1 [Example 138, (1s,4s)-4-((5-(1-(Difluoromethyl)-1H-pyrazol-3-yl)-2-((2-(1-(2-methoxyethyl)-1H-pyrazol-4-yl)pyrimidin-4-yl)amino)pyridin-4-yl)amino)-1-methylcyclohexan-1-ol]
5.2	0.8	1.1	1.7	165	57.1	> 10000	61	99.1	50.2	Cn1cc(-c2nccc(Nc3cc(N[C@H]4CC[C@@](C)(O)CC4)c(-c4ccn(C(F)F)n4)cn3)n2)cn1 [Example 139, (1s,4s)-4-((5-(1-(Difluoromethyl)-1H-pyrazol-3-yl)-2-((2-(1-methyl-1H-pyrazol-4-yl)pyrimidin-4-yl)amino)pyridin-4-yl)amino)-1-methylcyclohexan-1-ol]
3.2	–	15.8	–	198	–	> 10000	–	111	–	C[C@]1(O)CC[C@@H](Nc2cc(Nc3ccnc(-c4cnn(CC5CC5)c4)n3)ncc2-c2ccn(C(F)F)n2)CC1 [Example 141, (1s,4s)-4-((2-((2-(1-(Cyclopropylmethyl)-1H-pyrazol-4-yl)pyrimidin-4-yl)amino)-5-(1-(difluoromethyl)-1H-pyrazol-3-yl)pyridin-4-yl)amino)-1-methylcyclohexan-1-ol]
33.8	–	17.6	–	37.5	–	> 10000	486	114	–	CC(C)(O)Cn1cc(-c2nccc(Nc3cc(N[C@H]4CC[C@@](C)(O)CC4)c(-c4ccn(C(F)F)n4)cn3)n2)cn1 [Example 142, (1s,4s)-4-((5-(1-(Difluoromethyl)-1H-pyrazol-3-yl)-2-((2-(1-(2-hydroxy-2-methylpropyl)-1H-pyrazol-4-yl)pyrimidin-4-yl)amino)pyridin-4-yl)amino)-1-methylcyclohexan-1-ol]
0.2	0.1	0.1	0.1	11.6	0.9	> 10000	62.7	2.7	2.9	C[C@]1(O)CC[C@@H](Nc2cc(Nc3ccnc(-c4cnn(CC(F)F)c4)n3)ncc2-c2ccn(C(F)F)n2)CC1 [Example 143, (1s,4s)-4-((2-((2-(1-(2,2-Difluoroethyl)-1H-pyrazol-4-yl)pyrimidin-4-yl)amino)-5-(1-(difluoromethyl)-1H-pyrazol-3-yl)pyridin-4-yl)amino)-1-methylcyclohexan-1-ol]

More lines, now with the values behind:

SMILES	IC50 (EGFR L858R/T790M/C797S; [1]) [nM]	IC50 (EGFR L858R/T790M/C797S; [2]) [nM]	IC50 (EGFR del19/T790M/C797S; [3]) [nM]	IC50 (EGFR del19/T790M/C797S; [4]) [nM]	IC50 (EGFR L858R/C797S; [5]) [nM]	IC50 (EGFR L858R/C797S; [6]) [nM]	IC50 (EGFR wildtype (WT); [7]) [nM]	IC50 (EGFR wildtype (WT); [8]) [nM]	IC50 (EGFR del19/C797S; [9]) [nM]	IC50 (EGFR del19/C797S; [10]) [nM]
O=S(=O)(C1CC1)n1cc(-c2nccc(Nc3cc(NCC4CCC(NCCF)CC4)c(-c4ccn(C(F)F)n4)cn3)n2)cn1 (stereo not drawn) [Example 132, N^2-(2-(1-(Cyclopropylsulfonyl)-1H-pyrazol-4-yl)pyrimidin-4-yl)-5-(1-(difluoromethyl)-1H-pyrazol-3-yl)-N^4-((4-((2-fluoroethyl)amino)cyclohexyl)methyl)pyridine-2,4-diamine]	0.5	0.1	0.4	0.3	2.3	0.8	4690	5.2	1.1	0.5
O=S(=O)(C1CC1)n1cc(-c2nccc(Nc3cc(NC4CCC(CCO)CC4)c(-c4ccn(C(F)F)n4)cn3)n2)cn1 (stereo not drawn) [Example 133, 2-((1r,4r)-4-((2-((2-(1-(Cyclopropylsulfonyl)-1H-pyrazol-4-yl)pyrimidin-4-yl)amino)-5-(1-(difluoromethyl)-1H-pyrazol-3-yl)pyridin-4-yl)amino)cyclohexyl)ethan-1-ol]	3.2	0.1	0.5	0.3	99.3	1	> 10000	92.1	1.4	0.3
Cn1ccc(-c2cnc(Nc3ccnc(-c4cnn(S(=O)(=O)C5CC5)c4)n3)cc2N[C@H]2CC[C@H](CCO)CC2)n1 [Example 134, 2-((1r,4r)-4-((2-((2-(1-(Cyclopropylsulfonyl)-1H-pyrazol-4-yl)pyrimidin-4-yl)amino)-5-(1-methyl-1H-pyrazol-3-yl)pyridin-4-yl)amino)cyclohexyl)ethan-1-ol]	0.5	0.1	0.5	0.2	9.2	0.4	> 10000	4.4	0.8	0.6
Cn1ccc(-c2cnc(Nc3ccnc(-c4cnn(S(=O)(=O)C5CC5)c4)n3)cc2N[C@H]2CC[C@@H](CCO)CC2)n1 [Example 136, 2-((1s,4s)-4-((2-((2-(1-(Cyclopropylsulfonyl)-1H-pyrazol-4-yl)pyrimidin-4-yl)amino)-5-(1-methyl-1H-pyrazol-3-yl)pyridin-4-yl)amino)cyclohexyl)ethan-1-ol]	1	0.4	0.9	0.8	0.8	0.2	321	–	1.2	0.3
C[C@]1(O)CC[C@@H](Nc2cc(Nc3ccnc(-c4cnn(C5CC5)c4)n3)ncc2-c2ccn(C(F)F)n2)CC1 [Example 140, (1s,4s)-4-((2-((2-(1-Cyclopropyl-1H-pyrazol-4-yl)pyrimidin-4-yl)amino)-5-(1-(difluoromethyl)-1H-pyrazol-3-yl)pyridin-4-yl)amino)-1-methylcyclohexan-1-ol]	3.4	1.1	3.7	1	91.5	7.1	8960	137	37.2	27.3
CC(C)Nc1cc(Nc2ccnc(-c3cnn(S(=O)(=O)C4CC4)c3)n2)ncc1-c1ccn(C(F)F)n1 [Example 144, N^2-(2-(1-(Cyclopropylsulfonyl)-1H-pyrazol-4-yl)pyrimidin-4-yl)-5-(1-(difluoromethyl)-1H-pyrazol-3-yl)-N^4-isopropylpyridine-2,4-diamine]	–	0.7	–	1.2	–	12.5	–	687	–	24
